# Bridge positions count the residues as written; N and C are the ends. Ends that are not written are not given here.
# Tests used:
# [1] = test system: MUC5AC-containing stomach tissue; assay: Ex vivo fluorescent binding to stomach tissue; set-up: species or system porcine; settings: MUC5AC-selective peptides to stomach
# Text: (§1) After identifying the peptide hits for each mucin, we tested their binding in an ex vivo setting (Figure S1), evaluating their interaction with mucin-containing porcine tissue and semiquantitatively representing it through fluorescent imaging (Figure 3a). The cyclic peptides were synthesized and conjugated to a fluorophore, Alexa Fluor 647 (AF647), at the N-terminus to allow fluorescent imaging to be used to semiquantitatively measure the peptides’ ex vivo tissue binding, compared to free AF647 and AF647 conjugated to wheat germ agglutinin (WGA), a known lectin for glycoproteins.[40] […] Porcine GI tissue was used due to its similarity in mucin expression compared to human GI tissue and its capacity to source large surface areas of tissue for experiments.[41],[42] Representative IVIS images are shown in Figure 3b-e, where the first four columns represent the four identified peptides (M2.1–M2.4 in Figure 3b,c, M5.1–M5.4 in Figure 3d,e), the fifth column represents WGA-AF647, and the sixth column represents AF647. The “score” results for the peptide ligands are presented in Figure 3f,g for the mucins of interest, with Tables S2–S5 and Figure S3 detailing results for the other tissues (the equation for calculating the “score” is found in the Materials and Methodssection). […] We also examined selectivity by incubating peptides on nontarget tissues. Figure 3h,i depicts the “selectivity” results for the MUC2-selective and MUC5AC-selective peptides, respectively. Selectivity was calculated by determining the ratio of the “score” for a particular mucin to the sum of the “scores” for all mucins (see the Materials and Methods section for the equation used).
# The top-performing hits from phage display were tested on ex vivo segments of porcine mucin-containing tissues (jejunal, stomach, and esophageal tissues) obtained from local abattoirs or laboratory-maintained pigs. Tissue was used either immediately after acquisition or after storage at −80 °C; tissue was used at most 1 week after acquisition and storage at −80 °C. After acquisition and equilibration to room temperature, the tissue was washed twice with 25 mL (each) of cold 1× PBS to remove undigested food and other debris. After washing and cleaning, the tissue was mounted between two magnetic plates with holes corresponding to a 48-well plate, as previously described,[72] such that the luminal side of the tissue was facing up (Figure S1). After the tissue was mounted, the amount of peptide/protein corresponding to 40 μg of AF647 was suspended in 200 μL of 1× PBS and added to the wells created by the magnetic plates. This was done 3× for each formulation to perform the experiment in triplicate. In addition, plain 1× PBS was added to one well to serve as the background measurement. […] After washing was complete, fluorescence imaging was performed using an IVIS Spectrum fluorescent imaging system (PerkinElmer), with an automatically calculated exposure time (usually ∼1 s), a 20 cm × 20 cm field of view, and an excitation/emission of 640/680 nm, respectively. The imaging results were analyzed using Living Image software to calculate the total fluorescence intensity for each well, and the results for each hit or control were averaged across different wells. […]
# (§2) To better account for tissue-to-tissue variability, the results for each trial were reported as scores rather than using the raw fluorescence intensity. […]
# [2] = test system: MUC2-containing intestinal tissue (jejunal); assay: Ex vivo fluorescent binding to small intestine tissue; set-up: species or system porcine; settings: MUC2-selective peptides to small intestine
# Text: as §1
# The top-performing hits from phage display were tested on ex vivo segments of porcine mucin-containing tissues (jejunal, stomach, and esophageal tissues) obtained from local abattoirs or laboratory-maintained pigs. Tissue was used either immediately after acquisition or after storage at −80 °C; tissue was used at most 1 week after acquisition and storage at −80 °C. After acquisition and equilibration to room temperature, the tissue was washed twice with 25 mL (each) of cold 1× PBS to remove undigested food and other debris. After washing and cleaning, the tissue was mounted between two magnetic plates with holes corresponding to a 48-well plate, as previously described,[72] such that the luminal side of the tissue was facing up (Figure S1). After the tissue was mounted, the amount of peptide/protein corresponding to 40 μg of AF647 was suspended in 200 μL of 1× PBS and added to the wells created by the magnetic plates. This was done 3× for each formulation to perform the experiment in triplicate. In addition, plain 1× PBS was added to one well to serve as the background measurement. After the peptides were added, the plate setup was covered with aluminum foil and allowed to incubate for 1 h at room temperature with gentle agitation (50 rpm). After incubation, the nonbinding peptides were removed by pouring out the solutions onto a clean paper towel, and the setup was washed three times by adding 200 μL of 1× PBS to each well and gently agitating the setup for 30 s before removing the washing solution. After washing was complete, fluorescence imaging was performed using an IVIS Spectrum fluorescent imaging system (PerkinElmer), with an automatically calculated exposure time (usually ∼1 s), a 20 cm × 20 cm field of view, and an excitation/emission of 640/680 nm, respectively. The imaging results were analyzed using Living Image software to calculate the total fluorescence intensity for each well, and the results for each hit or control were averaged across different wells. The negative control used was unconjugated AF647, while the positive control was WGA-AF647, since WGA is a known lectin that binds glycoproteins.
# as §2
# small intestine = assay: In vivo gastrointestinal localization, small intestine; set-up: species or system Sprague–Dawley rats; settings: AF647 conjugate, oral gavage, 1 mg/kg, fasted rats, n = 6, 6 h, segment fluorescence / sum of esophagus, stomach
# Description: To measure the gastrointestinal localization of these peptides in vivo, peptides M2.3 and M5.2 with conjugated AF647 dye (as a model drug) were administered via oral gavage to fasted Sprague–Dawley rats, along with unconjugated AF647 dye and WGA-AF647. After 6 h, localization was measured by using fluorescent imaging on the rats’ GI tracts. The major results of the total binding fluorescence and organ-specific binding fluorescence for M2.3, as well as the total binding fluorescence and organ-specific binding fluorescence for M5.2, along with results for the AF647 and WGA-AF647 in each case, are shown in Figure 4, with more detailed results found in Figure S9. All results have been adjusted by subtracting the fluorescence from tissue from untreated rats. […]
# All animal studies were carried out under the supervision of MIT’s Division of Comparative Medicine and in compliance with NIH’s Principles of Laboratory Animal Care, following the guidelines set forth by MIT’s Committee on Animal Care. Sprague–Dawley rats (200–300 g, a mix of male and female) were obtained from Charles River Laboratories and allowed to acclimate to their new conditions for 1 week, following which their diet was adjusted to an alfalfa-free diet (AIN-93M, TestDiet) for at least 7 days prior to the study in order to reduce background fluorescence. […]
# MUC5AC [3] = target: T1, MUC5AC (Homo sapiens, UniProt P98088); assay: Phage display (CX7C library) against MUC5AC, Sanger sequencing; assay type: binding; settings: MUC5AC phage screening, third round of panning, 16 sequenced candidates
# Description: For each mucin of interest, 5 μg of mucin protein was diluted in 150 μL of Tris-buffered saline (TBS) and added to 2 wells of a microtiter plate. The plate was left overnight in a humidified, sealed container with agitation at 50 rpm. After the overnight mucin coating, the solution was poured out, and 300 μL of blocking buffer was added to the wells for 1 h. After the 1 h waiting period, the blocking buffer was poured out, and the wells were washed three times with 300 μL of Tris-buffered saline with TBST (TBS + 0.1% (v/v) Tween-20) to remove nonspecific binding on the mucin layer coating. Next, 5 μL of the C7C library diluted with 95 μL of TBST was added to each blocked well and placed on shaker for 45 min, before pouring out the nonbinding phage and washing the plate ten times with TBST. A 0.2 M glycine-HCl elution buffer (pH 2.2, 100 μL) was added to each well and placed on a shaker for 20 min to release the mucin-layer binding peptides on the plate as unamplified eluate, with the pH neutralized by 30 μL of neutralization buffer (1 M Tris-HCl, pH 9).
# E. coli liquid cultures were prepared by adding E. coli cells to 20 mL of LB media and placing them in shaking conditions at 37 °C and 250 rpm for 2 h and 45 min. The unamplified eluate (1 μL of which was saved for titering) was added to the E. coli cultures under the same conditions for 4 h and 45 min for amplification. […]
# MUC5AC [4] = target: T1, MUC5AC; assay: Phage ELISA on MUC5AC; assay type: binding; settings: phage clones displaying the peptide, 10^7 PFU/μL, MUC5AC-coated plate, anti-M13/HRP, TMB, 450 nm, blank subtracted, three wells; vs random library and insertless phage
# Text: We next sought to validate the binding efficiency of these identified phage clones. We tested phage clones displaying peptides M2.1, M2.2, M2.3, and M2.4 for binding to MUC2, and phage clones displaying peptides M5.1, M5.2, M5.3, and M5.4 for binding to MUC5AC. We utilized a bacteriophage enzyme-linked immunosorbent assay to test the binding of the peptide hits to the specific target mucins, MUC2 and MUC5AC (Figure 2d). The spectrophotometer reported absorbance values at 450 nm. The intensity of the absorbance signal is proportional to the amount of peptide-mucin binding present in each sample. The negative controls (library samples and insertless samples) served as references for nonspecific binding.
# First, mucin was coated onto the surface of a plastic plate overnight using the same process as that performed for the original phage display. The next morning, three wells of each phage clone were prepared, with each phage solution having a titer of 10^7 PFU/μL to ensure a fair comparison between the clones. […]
# However, instead of eluting the bound phage, 100 μL of 1:2000 anti-M13/HRP mouse monoclonal antibody was added to each well, and the antibody was allowed to incubate with the wells for 30 min. […] The resulting solutions were analyzed by absorbance spectroscopy at a wavelength of 450 nm to determine the relative amount of phage present in each well.
# [5] = scaled between free AF647 (0) and WGA-AF647 (1), mean across trials n = 3
Substance,"Overall nanoparticle “score” [1, 5]","Selectivity ([1]; score for MUC5AC tissue / sum of scores for all mucins, n = 3)","Overall nanoparticle “score” [2, 5]","Selectivity ([2]; score for MUC2 tissue / sum of scores for all mucins, n = 3)",selectivity for the small intestine vs controls (small intestine),% Prevalence (MUC5AC [3]),phage ELISA binding vs negative controls (MUC5AC [4])
Alexa Fluor 647-conjugated wheat germ agglutinin [WGA],1,0.333,1,0.333,did not demonstrate a significant improvement over the free dye,,
"CSSASVEWC (disulfide 1-9 (inferred)) [Peptide M5.4, CX7C cyclic peptide hit for MUC5AC; AF647 conjugated at N-terminus in ex vivo tests]",,,,,,6.25%,significantly greater binding to MUC5AC than the random library and insertless phage
